From the supplement of paper PMC3493320
pIC50: −log10 of the molar value.

Tested on: NCI-H295R
Test: IC50 (antiproliferative, ATP content)
Settings: 48 h
How it was run: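 Adrenocortical carcinoma cells were plated at 1500 per well in 1536-well plates in serum-free DMEM with ITS supplement, left overnight, then given library compounds by pin transfer at 8 final concentrations spanning 0.6 nM to 46 µM and held 48 h at 37 °C, 5% CO2. ATP was measured as CellTiter-Glo luminescence after 20 min at room temperature and scaled between vehicle and positive-control wells. A four-parameter logistic model was fitted to each series. The IC50 was taken from these fits, and compounds without a concentration response were recorded as above the top dose.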

| SMILES | pIC50 |
| --- | --- |
| [Na+].C/C(C)=C\Cc1cc(ccc1O)C(=O)N\C3=C(/[O-])c4ccc(O[C@@H]2OC(C)(C)[C@H](OC)[C@@H](OC(N)=O)[C@H]2O)c(C)c4OC3=O | < 4.34 |
| CC(C)(Oc1ccc(C2CC2(Cl)Cl)cc1)C(=O)O (centres undefined) | < 4.34 |
| CCCCC1C(=O)N(c2ccccc2)N(c2ccc(O)cc2)C1=O (centres undefined) | < 4.34 |
| Cc1nc2c([nH]1)c(=O)n(C)c(=O)n2Cc1ccco1 | < 4.34 |
| CCOc1ccccc1C(N)=O | < 4.34 |
| O=C1c2ccccc2C(=O)c2ccccc21 | < 4.34 |
| Cc1cc(C)c(C=C2C(=O)Nc3ccccc32)[nH]1 | < 4.34 |
| NC(CO)(CO)CO | < 4.34 |
| CCNc1nc(Cl)nc(NCC)n1 | < 4.34 |
| CNC(=NC#N)NCCSCc1nc[nH]c1C | < 4.34 |
| CCCCC1=NC2(CCCC2)C(=O)N1Cc1ccc(-c2ccccc2-c2nnn[nH]2)cc1 | < 4.34 |
| N[C@H](C)[C@@H](O)[C@]1=CC=CC=C1.Cl | < 4.34 |
| CC(C)(C)NCC(O)c1cc(O)cc(O)c1.CC(C)(C)NCC(O)c1cc(O)cc(O)c1.O=S(=O)(O)O (centres undefined) | < 4.34 |
| OCC(O)CN1CCN(c2ccccc2)CC1 (centres undefined) | < 4.34 |
| O=C(CS(=O)Cc1ccco1)NC/C=C\COc1cc(CN2CCCCC2)ccn1 (centres undefined) | < 4.34 |
| O=C(CO)[C@@H](O)[C@H](O)[C@@H](O)C(=O)[O-].O=C(CO)[C@@H](O)[C@H](O)[C@@H](O)C(=O)[O-].[Ca+2] | < 4.34 |
| Cc1c(OCC(F)(F)F)ccnc1CS(=O)c1nc2ccccc2[nH]1 (centres undefined) | < 4.34 |
| CCn1cc(C(=O)O)c(=O)c2cc(F)c(N3CCN(C)CC3)cc21.CS(=O)(=O)O | < 4.34 |
| CC(C)CCCC(C)NC(C)C (centres undefined) | < 4.34 |
| CNc1cc(OC)c(C(=O)N[C@H]2CCN(Cc3ccccc3)[C@H]2C)cc1Cl | < 4.34 |
| COc1cc(O)cc(O)c1 | < 4.34 |
| CNC[C@H](O)c1cccc(O)c1.Cl | < 4.34 |
| O=C(N[C@H]([C@H]1O[C@@H]([C@@H]4O)OC(C(O)=O)[C@H]([C@@H]4O)O[C@@H]([C@@H]3NC(C)=O)O[C@@H]([C@H](C3O[C@H]([C@@H]2O)O[C@H]([C@](O)=O)C([C@@H]2O)O)O)CO)C(O[C@@H]([C@H]1O)CO)O)C (some centres undefined) | < 4.34 |
| CCCC(C)(COC(N)=O)COC(=O)NC(C)C (centres undefined) | < 4.34 |
| NC(=O)CC[C@@H](N)C(=O)O | < 4.34 |

| SMILES | pIC50 |
| --- | --- |
| O=C2C=1/N=C\NC=1N(C)C(=O)N2C | < 4.34 |
| O=C(O)CN(CCOCCOCCN(CC(=O)O)CC(=O)O)CC(=O)O | < 4.34 |
| N/C(N)=N/C1=NC(CSCCC(N)=NS(N)(=O)=O)=CS1 | < 4.34 |
| O=C([O-])CN(CCN(CC(=O)[O-])CC(=O)[O-])CC(=O)[O-].[Ca+2].[Na+].[Na+] | < 4.34 |
| CC1=C(/C=C/C(C)=C/C=C/C(C)=C/C(=O)O)C(C)(C)CCC1 | < 4.34 |
| O=C1/C(=C2\Nc3ccccc3C2=O)Nc2ccccc21 | < 4.34 |
| COc1ccc(C(=O)N2CCN(CC(=O)N3CCOCC3)CC2)cc1 | < 4.34 |
| Nc1ccc(S(=O)(=O)Nc2ncccn2)cc1 | < 4.34 |
| CCC1(c2ccccc2)C(=O)NCNC1=O | < 4.34 |
| O=C(CCCN1CCC2(CC1)C(=O)NCN2c1ccccc1)c1ccc(F)cc1 | < 4.34 |
| CC(=O)c1ccc2c(c1)N(CCCN(C)C)c1ccccc1S2.O=C(O)/C=C/C(=O)O | < 4.34 |
| CC(CCc1ccc(O)cc1)NCC(O)c1ccc(O)cc1.Cl (centres undefined) | < 4.34 |
| O=C1CC[C@@]2(O)[C@H]3Cc4ccc(O)c5c4[C@@]2(CCN3CC2CC2)[C@H]1O5 | < 4.34 |
| COc1ccc(-c2cc(=O)c3c(O)cc(O[C@@H]4O[C@H](CO[C@@H]5O[C@@H](C)[C@H](O)[C@@H](O)[C@H]5O)[C@@H](O)[C@H](O)[C@H]4O)cc3o2)cc1O | < 4.34 |
| COc1ccc(/C=C/C(=O)O)cc1 | < 4.34 |
| CCN(CC)CCOC(=O)C(c1ccccc1)C1CCCCC1.Cl (centres undefined) | < 4.34 |
| O=C(NCC(O)CO)c1c(I)c(C(=O)NCC(O)CO)c(I)c(N(CCO)C(=O)CO)c1I (centres undefined) | < 4.34 |
| O=C(N1C)N[C@](C1=O)([C@@]2=CC=CC=C2)CC | < 4.34 |
| O=C1c2ccccc2C(=O)c2c1ccc(O)c2O | < 4.34 |
| O=[C@](OCC2=COC(CC3=CC=CC=C3)=C2)[C@H]1C(C)(C)[C@@H]1\C=C(C)/C | < 4.34 |
| CC(C)n1c(/C=C/[C@@H](O)C[C@@H](O)CC(=O)[O-])c(-c2ccc(F)cc2)c2ccccc21.[Na+] | < 4.34 |
| CC1CCc2c(N3CCC(O)CC3)c(F)cc3c(=O)c(C(=O)O)cn1c23 (centres undefined) | < 4.34 |
| O=C2N1[C@]([C@@]([H])2NC(C3=C(C)ON=C3C(C(Cl)=CC=C4)=C4F)=O)([H])SC(C)(C)[C@@H]1[C@@]([O-])=O.O.[Na+] | < 4.34 |
| NC(=O)CN1CC(O)CC1=O (centres undefined) | < 4.34 |
